Source: paper PMC9019904, “AD Informer Set: Chemical tools to facilitate Alzheimer's disease drug discovery” (Alzheimer's & Dementia : Translational Research & Clinical …, 2022)

How the values were obtained:
[1] = tested on: HMC3 (human microglia) cell line; test: pHrodo-myelin phagocytosis/cell viability high content imaging assay: phagocytosis signal; format: cell-based
Outline: (§1)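 Mouse BV2 and human HMC3 microglia given pHrodo-myelin; phagocytosis and cell viability imaged together by high content imaging about 22 hours after myelin addition. Three measurements extracted, including intensity increase and decrease marking early and later apoptosis.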

[2] = tested on: BV2 (mouse microglia) cell line; test: as above; format: cell-based
Outline: as §1

[3] = tested on: HMC3 (human microglia) cell line; test: pHrodo-myelin phagocytosis/cell viability high content imaging assay: viability (cell count, nuclear area, nuclear intensity); settings: 48 hours treatment
Outline: (§2)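 Immortalized microglia are treated with compound (10 μM, single concentration) for 48 h, the final 20 h alongside pHrodo-myelin. Data are the mean of duplicates, reported as % of untreated control.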

[4] = tested on: BV2 (mouse microglia) cell line; test: as above; settings: 48 hours treatment
Outline: as §2

[5] = HMC3 cells, 10 uM compound, 48 hours treatment, pHrodo-myelin final 20 hours
[6] = BV2 cells, 10 uM compound, 48 hours treatment, pHrodo-myelin final 20 hours
[7] = HMC3, compound 10 uM, pHrodo-myelin
[8] = BV2, compound 10 uM, pHrodo-myelin

Row | SMILES | 4. Phagocytosis (% control) [1, 5] [% control] | 4. Phagocytosis (% control) [2, 6] [% control] | 1. Cell count (% control) ([3]; HMC3 cells, 10 uM compound) | 2. Nuclear Area (% Control) ([3]; HMC3 cells, 10 uM compound) | 3. Nuclear DNA Intensity (% control) ([3]; HMC3 cells, 10 uM compound) | 1. Cell count (% control) ([4]; BV2 cells, 10 uM compound) | 2. Nuclear Area (% Control) ([4]; BV2 cells, 10 uM compound) | 3. Nuclear DNA Intensity (% control) ([4]; BV2 cells, 10 uM compound) | 4. Phagocytosis (% control) [1, 7] [% control] | 4. Phagocytosis (% control) [2, 8] [% control] | 1. Cell count (% control) ([3]; HMC3, compound 10 uM) | 2. Nuclear Area (% Control) ([3]; HMC3, compound 10 uM) | 3. Nuclear DNA Intensity (% control) ([3]; HMC3, compound 10 uM) | 1. Cell count (% control) ([4]; BV2, compound 10 uM) | 2. Nuclear Area (% Control) ([4]; BV2, compound 10 uM) | 3. Nuclear DNA Intensity (% control) ([4]; BV2, compound 10 uM)
1 | Nc1nc(Nc2ccc3c(c2)CC[C@@H](N2CCCC2)CC3)nn1-c1cc2c(nn1)-c1ccccc1CCC2 [UNC10220544A] | 0.8 | 0.0 | 56.4 | 55.3 | 170.6 | 2.8 | 94.5 | 55.2 | – | – | – | – | – | – | – | –
2 | Cl.N=C(CCl)NCCC[C@H](NC(=O)c1ccccc1)C(N)=O [UNC10303161A] | – | – | – | – | – | – | – | – | 67.2 | 134.6 | 164.2 | 99.9 | 88.6 | 107.1 | 104.4 | 99.5
3 | Oc1c(F)cc(-c2cnccc2-c2ccc(N3CCOCC3)cc2)cc1F [UNC10302871A] | – | – | – | – | – | – | – | – | 84.7 | 174.2 | 123.1 | 101.3 | 92.9 | 98.2 | 107.6 | 98.3
4 | CCOC(=O)CS(=O)(=O)c1ccc([C@@H](CO)NC(=O)c2cc3c(Cl)c(Cl)c(C)cc3n2C)cc1 [UNC10302908A] | 53.1 | 249.0 | 71.6 | 75.5 | 156.6 | 28.9 | 117.3 | 97.5 | – | – | – | – | – | – | – | –
5 | O=C(NC1CC1)C(=O)C(Cc1ccccc1)NC(=O)[C@H]1CCC(=O)N1Cc1ccccc1 (stereo partly drawn) [UNC10302676A] | 95.9 | 108.4 | 123.8 | 98.7 | 104.1 | 127.5 | 105.0 | 102.8 | – | – | – | – | – | – | – | –
6 | CO[C@H]1C[C@@H]2CC[C@@H](C)[C@@](O)(O2)C(=O)C(=O)N2CCCC[C@H]2C(=O)O[C@H]([C@H](C)C[C@@H]2CC[C@@H](O)[C@H](OC)C2)CC(=O)[C@H](C)/C=C(\C)[C@@H](O)[C@@H](OC)C(=O)[C@H](C)C[C@H](C)/C=C/C=C/C=C/1C [UNC10302852A] | 64.8 | 309.6 | 103.0 | 85.8 | 119.9 | 54.7 | 106.2 | 98.8 | – | – | – | – | – | – | – | –
